Legend:
LNCaP cells = experiment: Emergence of androgen insensitive (AI) colonies of LNCaP with bicalutamide; type: cell-based
recombinant TLK1B [1] = target: T1, recombinant TLK1B (Homo sapiens, UniProt Q9UKI8); experiment: High throughput screen with Rad9 peptide substrate / autokinase assay; type: biochemical; conditions: library screen
T1 sequence (Q9UKI8 1-549 isoform Q9UKI8-3): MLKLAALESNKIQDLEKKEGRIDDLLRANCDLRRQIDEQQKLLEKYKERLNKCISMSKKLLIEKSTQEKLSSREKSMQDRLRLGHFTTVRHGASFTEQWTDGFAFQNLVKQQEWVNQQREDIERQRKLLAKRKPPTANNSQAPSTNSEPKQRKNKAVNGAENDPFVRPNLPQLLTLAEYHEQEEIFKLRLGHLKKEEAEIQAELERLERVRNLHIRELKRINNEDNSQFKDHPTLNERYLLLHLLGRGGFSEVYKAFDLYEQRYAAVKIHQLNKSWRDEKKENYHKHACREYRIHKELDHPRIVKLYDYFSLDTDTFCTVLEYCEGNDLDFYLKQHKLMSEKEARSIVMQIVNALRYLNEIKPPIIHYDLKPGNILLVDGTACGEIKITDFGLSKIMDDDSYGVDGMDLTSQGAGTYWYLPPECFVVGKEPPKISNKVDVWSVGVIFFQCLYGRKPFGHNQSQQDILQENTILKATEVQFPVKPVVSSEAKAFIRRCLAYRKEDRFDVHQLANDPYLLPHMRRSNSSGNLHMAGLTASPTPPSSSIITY
Experimental: FIGS. 5A and 5B show Inhibition of TLK1/1B autophosphorylation by PTH. […] 293T cells were incubated for 1 hour with PPH. TLK1 was immunoprecipitated, followed by auto-phosphorylation with γ-ATP^32. The blots were then probed with TLK1 antiserum.
Identification of TLK inhibitors. The inventors have screened the Prestwick Library, partially the ChemDiv, and two proprietary libraries (10,000 compounds) for inhibitors of TLK with a high throughput screen with recombinant TLK1B and a Rad9 peptide substrate. […] The inhibition of autokinase activity was confirmed by TCA-precipitable counts with γ32P-ATP (FIG. 5A).

456 human kinases = experiment: Kinome panel (KinomeScan-DiscoverX); type: binding
[2] = tested on: panel of cell lines, including RWPE1 and hTERT-HME1; experiment: Toxicity on a panel of cell lines without doxorubicin; type: cell-based; conditions: 15 μM, absence of doxorubicin
recombinant TLK1B [3] = target: T1, recombinant TLK1B; experiment: TLK1B kinase assay with Nek1 peptide (ADP Hunter), inhibitor screening; type: biochemical; parameters: The full-length, 65 KDa recombinant human TLK1B (hTLK1B) for the in-vitro experiments was expressed and purified from bacteria; made in house; host or cells: bacteria; conditions: tested at 20 μM
Experimental: FIG. 8A-FIG. 25 show further experiments into the present invention, with FIGS. 8A-8G show kinase assays, inhibitor screening, IC50 evaluation and competitive assays. Recombinant TLK1B purified to homogeneity (FIG. 8A) is active in kinase assays (FIG. 8B) and phosphorylates a specific Nek1 peptide (FIG. 8C). […] All experiments were conducted in triplicates. The DiscoverRx ADP Hunter™ (Eurofins DiscoverRx, Fremont, CA, US) Kit was used to measure the generation of ADP resulting from kinase phosphorylation of substrate.
Chemical synthesis of J54 and several different Phenothiazines and Protein expression and purification: Details were explained in section B of supplementary of material and methods. The full-length, 65 KDa recombinant human TLK1B (hTLK1B) for the in-vitro experiments was expressed and purified from bacteria as described earlier.
Results: A new PTH potent inhibitor of TLK1B. A few PTH antipsychotics were identified in a screen the inventors conducted from a compounds library as good inhibitors of TLK1. To find additional inhibitors, recombinant TLK1B was purified (FIG. 8A). The enzymatic activity was determined using the ADP-Hunter reagents and a Nek1 peptide containing the T141 target site. […] Several structurally similar compounds were synthesized as described in the Appendix (and see NMR and MS data FIGS. 10 and 11) and tested at 20 μM (FIGS. 8E and 8F). […] The inventors continued the inventors' characterization of J54.

LNCaP xenografts = experiment: LNCaP xenograft model; type: in vivo, NOD/SCID mice; conditions: mouse, in vivo
Experimental: Treatment started 19 days after implantation when the tumors measure ˜200 mm^3. Two independent experiment with 5 mice per group were carried out. J54 and Bicalutamide was dissolved in DMSO and diluted in corn oil 1:10 and administered IP bi-weekly. Sectioning and processing of the tissues were carried out in the FWCC Histology Service, using automated processes and equipment to provide uniform and standardized results. Indirect labeling was with ABC Elite: RTU Vectastain Elite Reagent, Vector #PK-7100; DAB: ImmPact DAB, Vector #SK-4105. Light counterstaining was done with hematoxylin. […] Note the weak pNek1 stain in the tumor from mice treated with J54, in contrast to the increase seen with BIC.
LNCaP Xenograft Model and Immunohistochemistry (IHC): All animals used in this study were approved by LSUHSC IACUC and following ARRIVE guidelines. Male NOD/SCID mice (5 per group) were purchased from Jackson labs. LNCaP cells were injected as described earlier. Mice were treated IP bi-weekly with J54 (5 mg/kg body weight—dose estimation derived from pharmacokinetics study) and/or Bicalutamide (100 mg/kg).
The inventors sought to establish if the addition of J54 could suppress the resurgence of tumor growth of LNCaP xenografts and their latter conversion to CRPC. Following formation of sizeable tumors (˜200 mm^3), castration or anti-androgens arrest the progression of LNCaP xenografts for some time (2-3 weeks), while subsequently the tumors start growing again at an accelerated rate which is refractory to ADT (AI). Therefore, the inventors injected LNCaP cells in matrigel in both flanks of NOD-SCID mice, and then randomly assigned them to four treatment groups (n=5 per group×2 independent experiments), as shown in FIGS. 13A-13C. […] The inventors should also point out that the inventors treated the mice with J54 only bi-weekly due to the favorable pharmacokinetics, where maximal plasma concentration of 100 ng/ml ([…]) were reached 2 h after IP injection, and was still present at −6 ng/ml (6 μM) after 24 h (FIG. 18A-18C).

SMILES	inhibition of TLK (recombinant TLK1B [1])	toxicity [2]	other results
CSc1ccc2c(c1)N(CCC1CCCCN1C)c1ccccc1S2 (stereo not shown) [THD, Thioridazine]	strong inhibitors	low toxicity	growth inhibition in androgen containing medium (FCS) (LNCaP cells; 3-9 μM THD): 50%; emergence of AI colonies (LNCaP cells; 3-9 μM THD with bicalutamide, three weeks): few or no AI colonies emerged; conversion of LNCaP cells to androgen independent growth (LNCaP cells; three weeks of culture with bicalutamide): Complete inhibition; specificity on kinome panel (456 human kinases): no other kinase (except TLK2) in the panel was inhibited
CN1CCN(CCCN2c3ccccc3Sc3ccc(C(F)(F)F)cc32)CC1 [TFP, Trifloroperazine]	strong inhibitors	low toxicity	
CN1c2ccccc2Sc2ccccc21 [J56, 10-methyl-10H-phenothiazine]			inhibition of TLK1B compared with standard (recombinant TLK1B [3]): more inhibitory than Staurosporin
OCCN1CCN(CCCN2c3ccccc3Sc3ccc(Cl)cc32)CC1 [PPH, Perphenazine]	strong inhibitors	low toxicity	
CN(C)CCCN1c2ccccc2Sc2ccccc21 [PMZ, Promazine]	strong inhibitors		
CC(O)(CS(=O)(=O)c1ccc(F)cc1)C(=O)Nc1ccc(C#N)c(C(F)(F)F)c1 (stereo not shown) [BIC, Bicalutamide, reference compound]			lag before exponential growth following beginning of administration (LNCaP xenografts): 12 days

From patent US11826369B2, “Targeting the TLK1/NEK1 axis in prostate cancer” (Board of Supervisors of Louisiana State University and …, priority 2019, dated 2023)
